System: 15 pancreatic, non-small cell lung, and bladder cancer cell lines: 10 MTAP null and 5 MTAP wild-type
Experiment: 10-day proliferation screen with Compound A pre-treatment, panel summary (Example 3)
Assay type: cell-based
Method: A 10-day proliferation screen was performed in 15 pancreatic, non-small cell lung, and bladder cancer cell lines: 10 MTAP null and 5 MTAP wild-type. Optimal cell seeding for all cell lines was determined by assessing the growth over a range of seeding densities in a 384-well format to identify conditions that permitted proliferation for 10 days. Cells were then plated at the optimal seeding density in the presence of 20-150 nM of Compound A or DMSO vehicle control. Cells were incubated at 37° C. with 5% CO2 for 4 days to allow for target engagement of the pre-treatment compound. Maintaining the pre-treatment condition, cells were also treated with an 11-point, three-fold titration series of compounds from a chemically diverse library of 424 compounds. […] A plate of cells was harvested at the time of combination compound addition to quantify the number of cells at the start of the combination (T0). For cell quantification, the harvested cells were lysed with CellTiter-Glo (CTG) (Promega) reagent according to the manufacturer's protocol and the chemiluminescent signal was detected on a Synergy Neo plate reader (ThermoFisher, serial #140715A). […] Cells were then lysed with CTG and the chemiluminescent signal was measured. CTG values obtained after the 10-day treatment were background subtracted, expressed as a percent of the T0 value, and plotted against compound concentration. […]

NS(=O)(=O)c1ccc(S(=O)(=O)Nc2cccc3c(Cl)c[nH]c23)cc1 [Indisulam, N-(3-chloro-1H-indol-7-yl)benzene-1,4-disulfonamide]
cell lines with growth IC50 shifts ≥2-fold (MTAP-deficient cell lines): 7/10 | cell lines with growth IC50 shifts ≥2-fold (wild type cell lines): 1/5

Source: patent US20260294915A1, “COMBINATION THERAPY COMPRISING A MAT2A INHIBITOR AND A TOPOISOMERASE INHIBITOR, A SPLICING INHIBITOR SULFONAMIDE, OR A KIF18 INHIBITOR” (IDEAYA BIOSCIENCES, INC., priority 2023, published 2026)
